≈ marks a conversion by molar mass, not a printed value. Residues, ends and D or L forms follow the SMILES beside them.
Columns and labels:
S. aureus ATCC 29213 = assay: microbe, parasite or virus in culture; format: cell-based; settings: ATCC 29213
A. baumannii 7979 = assay: microbe, parasite or virus in culture; format: cell-based; settings: 7979
Method: (§1) Bacterial strains and growth conditions: All Gram-negative and Gram-positive bacterial strains (Supplementary Table S8) were cultured in Luria-Bertani (LB) or trypticase soy broth (TSB) agar plates, respectively, and incubated overnight at 37 °C unless specifically indicated. A single colony of the tested bacterial strains was inoculated into medium broth with shaking at 220 rpm for further experiments.
(§2) Minimal inhibitory concentrations: Antimicrobial susceptibility testing was performed by broth microdilution method for AMPs against Gram-positive and Gram-negative pathogens above mentioned, following the methods of document CLSI M100-ED34.[43] The MICs were defined as the lowest concentrations that inhibit visible growth of the tested bacteria. E. coli ATCC 25,922 and S. aureus ATCC 29,213 were served as quality controls.

A. baumannii AB11 = assay: microbe, parasite or virus in culture; format: cell-based; settings: AB11
Method: as §1, §2

E. coli ATCC 25922 = assay: microbe, parasite or virus in culture; format: cell-based; settings: ATCC 25922
Method: as §1, §2

E. faecalis ES01 = assay: microbe, parasite or virus in culture; format: cell-based; settings: ES01
Method: as §1, §2

E. faecalis J2 = assay: microbe, parasite or virus in culture; format: cell-based; settings: J2
Method: as §1, §2

E. faecalis JH2-2 = assay: microbe, parasite or virus in culture; format: cell-based; settings: JH2-2
Method: as §1, §2

E. faecium HFY01 = assay: microbe, parasite or virus in culture; format: cell-based; settings: HFY01
Method: as §1, §2

E. faecium MC38 = assay: microbe, parasite or virus in culture; format: cell-based; settings: MC38
Method: as §1, §2

E. faecium QF31 = assay: microbe, parasite or virus in culture; format: cell-based; settings: QF31
Method: as §1, §2

K. pneumoniae 9-1 = assay: microbe, parasite or virus in culture; format: cell-based; settings: 9-1
Method: as §1, §2

P. aeruginosa PA14 = assay: microbe, parasite or virus in culture; format: cell-based; settings: PA14
Method: as §1, §2

S. agalactiae DL03 = assay: microbe, parasite or virus in culture; format: cell-based; settings: DL03
Method: as §1, §2

S. aureus M147-2 = assay: microbe, parasite or virus in culture; format: cell-based; settings: M147-2
Method: as §1, §2

S. aureus M92-1 = assay: microbe, parasite or virus in culture; format: cell-based; settings: M92-1
Method: as §1, §2

S. aureus YZSA-15 = assay: microbe, parasite or virus in culture; format: cell-based; settings: YZSA-15
Method: as §1, §2

S. aureus YZSA-21 = assay: microbe, parasite or virus in culture; format: cell-based; settings: YZSA-21
Method: as §1, §2

S. aureus YZSA-24 = assay: microbe, parasite or virus in culture; format: cell-based; settings: YZSA-24
Method: as §1, §2

S. pyogenes DL02 = assay: microbe, parasite or virus in culture; format: cell-based; settings: DL02
Method: as §1, §2

S. suis SH0918 = assay: microbe, parasite or virus in culture; format: cell-based
Method: as §1, §2

S. suis P1/7 = assay: microbe, parasite or virus in culture
Method: as §1
Minimal inhibitory concentrations: Antimicrobial susceptibility testing was performed by broth microdilution method for AMPs against Gram-positive and Gram-negative pathogens above mentioned, following the methods of document CLSI M100-ED34.[43] The MICs were defined as the lowest concentrations that inhibit visible growth of the tested bacteria.

S. enteritis S1 = assay: organism not typed; format: cell-based
Method: as §1, §2

[1] = test system: S. aureus clinical isolates (n = 40); format: cell-based
Method: as §1, §2

[2] = test system: four Gram-positive and five Gram-negative bacteria, including ESKAPE pathogens; format: cell-based
Method: as §1, §2

Caco-2 = assay: Cytotoxicity, CCK-8; format: cell-based, human; settings: for CC50: 48 h; for CC50/MIC: Caco-2, MIC values against S. aureus ATCC 29213
Method: (§3) The cytotoxicity of selected AMPs to human laryngeal carcinoma epithelial cell (HEp-2) and colorectal adenocarcinoma cell (Caco-2) lines was evaluated using the CCK-8 method as previously described.[55] The cells were cultured in high-glucose dulbecco’s modified eagle medium (DMEM) supplemented with 10% fetal bovine serum (FBS) and 1% penicillin-streptomycin. Cells were inoculated in 96-well sterile microtiter plate at 5000 cells/100 μL. After cultured (37℃, 5%CO2) for 24 h, cells were treated with AMPs at concentrations ranging from 8 to 128 μg/mL for another 48 h. Afterward, the culture medium was replaced by fresh DMEM medium containing 10% CCK-8 and incubated for 1 h. The absorbance of the solution was measured at 450 nm by a microplate reader. Cell viability was calculated as: % cell viability = [(Abssample - Absblank)/(Absnegative - Absblank)]×100%. Each experiment was carried out with three replicates.

HEp-2 = assay: Cytotoxicity, CCK-8; format: cell-based, human; settings: for CC50: 48 h; for CC50/MIC: HEp-2, MIC values against S. aureus ATCC 29213
Method: as §3

mouse red blood cells = assay: Haemolysis assay; format: cell-based; settings: for HC50/MIC: MIC values against S. aureus ATCC 29213
Method: Red blood cells (RBCs) from Kunming mice were used to evaluate the hemolytic toxicity of the selected AMPs. Fresh red blood cells were collected from mice and washed until the supernatant was completely cleared. Added 19-fold volume of PBS to prepare 2% RBC suspension. […] Afterward, the mixture was centrifuged at 1500 rpm for 10 min. Then transferred 30 µL supernatant to 96-well plate containing 70 µL PBS. The absorbance of the sample was measured at 450 nm by a microplate reader. PBS and 2% Triton X-100 was used as negative and positive control, respectively. The experiment was performed in triplicate and the hemolysis activity was calculated by the formula hemolysis = [(Absorbancesample- AbsorbancePBS)/(AbsorbanceTriton x-100-AbsorbancePBS)]×100%.

E. faecalis SF23-1 = assay: microbe, parasite or virus in culture; format: cell-based; settings: SF23-1
Method: as §1, §2

P. aeruginosa PAO1 = assay: microbe, parasite or virus in culture; format: cell-based; settings: PAO1
Method: as §1, §2

proteinase K = proteinase K (Parengyodontium album, UniProt P06873); assay: Protease stability by MIC change; format: in vitro ADME; settings: proteinase K 10 μg/mL, 37℃, 1 h, then MIC
pepsin = pepsin 10 μg/mL, 37℃, 1 h, then MIC
Method: (§4) To understand stability of peptide under different pH conditions, AMP solutions were prepared at different pH values (pH = 2, 4, 6, 8, 10, and 12) and then incubated at room temperature for 1 h. For the temperature stability, AMP solutions were incubated at 20, 25, 40, 60, 80, and 100℃ for 1 h. For the protease stability, AMP solutions were incubated with pepsin, trypsin, and proteinase K at different concentration of 10 μg/mL at 37℃ for 1 h.[52],[53] After incubation, the MIC values peptides were determined using the MIC experimental protocol.

trypsin = trypsin 10 μg/mL, 37℃, 1 h, then MIC
Method: as §4

chymotrypsin = settings: 1 h, then MIC
[3] = MIC in the presence of 50% rabbit plasma; S. aureus, E. faecalis, S. suis, S. enteritis, K. pneumoniae

proteinase K, sequence (P06873 106-384): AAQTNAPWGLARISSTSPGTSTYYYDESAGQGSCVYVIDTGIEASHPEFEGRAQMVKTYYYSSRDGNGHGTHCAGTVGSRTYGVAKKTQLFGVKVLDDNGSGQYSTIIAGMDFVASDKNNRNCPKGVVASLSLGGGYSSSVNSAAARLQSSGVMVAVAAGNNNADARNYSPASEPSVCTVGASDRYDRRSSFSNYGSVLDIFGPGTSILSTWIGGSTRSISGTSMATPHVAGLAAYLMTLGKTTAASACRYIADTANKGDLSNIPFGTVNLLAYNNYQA

SMILES	MIC (S. aureus ATCC 29213)	MIC (A. baumannii 7979)	MIC (E. coli ATCC 25922)	MIC (E. faecalis ES01)	MIC (E. faecalis J2)	MIC (E. faecalis JH2-2)	MIC (E. faecium HFY01)	MIC (E. faecium MC38)	MIC (E. faecium QF31)	MIC (K. pneumoniae 9-1)	MIC (P. aeruginosa PA14)	MIC (S. agalactiae DL03)	MIC (S. aureus M147-2)	MIC (S. aureus M92-1)	MIC (S. aureus YZSA-15)	MIC (S. aureus YZSA-21)	MIC (S. aureus YZSA-24)	MIC (S. pyogenes DL02)	MIC (S. suis SH0918)	MIC (S. suis P1/7)	further results
CC(C)C[C@H](NC(=O)[C@H](CCCCN)NC(=O)[C@H](Cc1c[nH]c2ccccc12)NC(=O)[C@H](CC(C)C)NC(=O)[C@H](CC(C)C)NC(=O)[C@H](CCCCN)NC(=O)[C@H](Cc1c[nH]c2ccccc12)NC(=O)[C@H](Cc1c[nH]c2ccccc12)NC(=O)[C@H](CCCCN)NC(=O)[C@H](CCCCN)NC(=O)[C@H](C)N)C(=O)N[C@@H](Cc1c[nH]c2ccccc12)C(=O)N[C@@H](CCCCN)C(=O)N[C@@H](CCCCN)C(=O)N[C@@H](C)C(=O)N[C@@H](CCCCN)C(=O)O [AMP_S4] (H-AKKWWKLLWKLWKKAK-OH)	4 µg/mL (≈ 1.87 µM)	4 µg/mL (≈ 1.87 µM)	8 µg/mL (≈ 3.74 µM)	4 µg/mL (≈ 1.87 µM)	8 µg/mL (≈ 3.74 µM)	8 µg/mL (≈ 3.74 µM)	4 µg/mL (≈ 1.87 µM)	4 µg/mL (≈ 1.87 µM)	4 µg/mL (≈ 1.87 µM)	16 µg/mL (≈ 7.47 µM)	8 µg/mL (≈ 3.74 µM)	4 µg/mL (≈ 1.87 µM)	4 µg/mL (≈ 1.87 µM)	4 µg/mL (≈ 1.87 µM)	4 µg/mL (≈ 1.87 µM)	4 µg/mL (≈ 1.87 µM)	16 µg/mL (≈ 7.47 µM)	4 µg/mL (≈ 1.87 µM)	4 µg/mL (≈ 1.87 µM)	4 µg/mL (≈ 1.87 µM)	MIC (A. baumannii AB11): 2 µg/mL (≈ 0.934 µM); MIC (S. enteritis S1): 16 µg/mL (≈ 7.47 µM); MICs, range over clinical isolates [1]: 4 to 32 µg/mL; MIC values, range [2]: 2 to 16 µg/mL; MICs, range over panel [2]: 2 to 16 µg/mL; CC50 (Caco-2): 15.82 µg/mL (≈ 7.39 µM); CC50/MIC (Caco-2): 3.96; CC50 (HEp-2): 35.16 µg/mL (≈ 16.4 µM); CC50/MIC (HEp-2): 8.8; HC50/MIC (mouse red blood cells): 4.56
CC[C@H](C)[C@H](NC(=O)[C@H](C)NC(=O)[C@H](CCC(N)=O)NC(=O)[C@H](Cc1c[nH]c2ccccc12)NC(=O)[C@H](C)N)C(=O)N[C@@H](C)C(=O)N[C@@H](CCCNC(=N)N)C(=O)N[C@@H](CC(C)C)C(=O)N[C@H](C(=O)N[C@@H](CCCCN)C(=O)NCC(=O)N[C@@H](CCCNC(=N)N)C(=O)NCC(=O)N[C@@H](CCCNC(=N)N)C(=O)N[C@@H](CCCCN)C(=O)N[C@@H](CCCCN)C(=O)N[C@@H](Cc1ccc(O)cc1)C(=O)NCC(=O)N[C@@H](CCCNC(=N)N)C(=O)N[C@H](C(=O)N[C@H](C(=O)N[C@H](C(=O)N[C@H](C(=O)NCC(=O)O)[C@@H](C)CC)[C@@H](C)CC)[C@@H](C)CC)[C@@H](C)CC)[C@@H](C)CC [AMP_S13] (H-AWQAIARLIKGRGRKKYGRIIIIG-OH)	8 µg/mL (≈ 2.92 µM)	2 µg/mL (≈ 0.73 µM)	8 µg/mL (≈ 2.92 µM)	4 µg/mL (≈ 1.46 µM)	8 µg/mL (≈ 2.92 µM)	8 µg/mL (≈ 2.92 µM)	4 µg/mL (≈ 1.46 µM)	4 µg/mL (≈ 1.46 µM)	4 µg/mL (≈ 1.46 µM)	16 µg/mL (≈ 5.84 µM)	8 µg/mL (≈ 2.92 µM)	4 µg/mL (≈ 1.46 µM)	8 µg/mL (≈ 2.92 µM)	8 µg/mL (≈ 2.92 µM)	8 µg/mL (≈ 2.92 µM)	8 µg/mL (≈ 2.92 µM)	16 µg/mL (≈ 5.84 µM)	4 µg/mL (≈ 1.46 µM)	4 µg/mL (≈ 1.46 µM)	4 µg/mL (≈ 1.46 µM)	MIC (E. faecalis SF23-1): 8 µg/mL (≈ 2.92 µM); MIC (P. aeruginosa PAO1): 8 µg/mL (≈ 2.92 µM); MIC (S. enteritis S1): 16 µg/mL (≈ 5.84 µM); MICs, range over clinical isolates [1]: 4 to 32 µg/mL; MIC values, range [2]: 2 to 16 µg/mL; MICs, range over panel [2]: 2 to 16 µg/mL; antimicrobial activity (MIC) after protease incubation (proteinase K): only a two-fold decrease in MIC; antimicrobial activity (MIC) after protease incubation (pepsin): maintained its activity; antimicrobial activity (MIC) after protease incubation (trypsin): maintained its activity; CC50 (Caco-2): 1011 µg/mL (≈ 369 µM); CC50/MIC (Caco-2): 126.38; CC50 (HEp-2): 353.3 µg/mL (≈ 129 µM); CC50/MIC (HEp-2): 44.16; HC50/MIC (mouse red blood cells): 116.08; HC50 (mouse red blood cells; mouse red blood cells, 37℃, 1 h): 928.6 µg/mL; antimicrobial activity (MIC) after protease incubation (chymotrypsin): maintained its activity; antimicrobial activity in plasma [3]: remained effective

Source: paper PMC12203862, “BroadAMP-GPT: AI-Driven generation of broad-spectrum antimicrobial peptides for combating multidrug-resistant ESKAPE pathogens” (Gut Microbes, 2025)
